These results are taken from US20040235070A1, “Immune reactivity to expressed activated oncogenes for diagnosis and treatment of malignancy” (Washington Research Foundation, priority 1990, published 2004).

Test [1] has as its system bcr3-abl2 peptide-specific CD4^+ T cell clones. Nature of the test: Proliferative assay of bcr3-abl2 peptide-specific CD4+ T cell clones ([3H] thymidine incorporation). Type of test: cell-based, BALB/c mice. Particulars: for [^3H] Thymidine Incorporation (c.p.m.): peptide 5 μg/ml, Table 2; for [^3H] Thymidine Incorporation (c.p.m.) / [^3H] Thymidine Incorporation (c.p.m.) after Stimulation with bcr-abl 12 peptide/proteins (μg/ml): 96-hour culture; for [^3H] Thymidine Incorporation (c.p.m.) after Stimulation with bcr3-abl2 peptide (5 μg/ml): peptides of varying lengths 5 μg/ml, 96 hour culture, Table 4; for [^3H] Thymidine Incorporation (c.p.m.) after Stimulation with bcr-abl 12 peptide/proteins (μg/ml): Table 5. The procedure:
Mice (female BALB/c and C57BL/6 (B6), 6 to 8 weeks old; Jackson Laboratories, Bar Harbor, Me.) were inoculated twice at 2-week intervals by subcutaneous injection with Complete Freund's Adjuvant (Sigma Chemical Co., St. Louis, Mo.) alone or emulsified with bcr3-abl2 peptide (100 μg). Ten days after the final immunization, single cell suspensions of draining lymph nodes and spleens were prepared in medium consisting of 1:1 mixture of RPMI 1640 (Gibco Laboratories, Inc., Grand Island, N.Y.) and EHAA (Biofluids, Inc., Rockville, Md.) with 2.5×10^−5 M 2-ME, 200 U/ml penicillin, 200 U/ml streptomycin, 10 mM L-glutamine and 10% fetal calf serum. For proliferative assays, lymphocytes were cultured in 96-well plates at 2×10^5 cells per well with 4×10^5 irradiated syngeneic spleen cells (3,000 rad) and designated (total volume of 200 μl per well). Plates were incubated in a humidified atmosphere under 5% CO2 tension at 37° C. for 72 hours, and then pulsed for 18 hours with […] of [^3H]-thumidine per well. Proliferative responses of cloned T cells utilized 2×10^4 cells per well with 5×10^5 irradiated syngeneic spleen cells (3,000 rad) and designated peptide.
Lymphocytes from the draining lymph nodes of mice immunized with bcr3-abl2 peptide were cultured in 24-well culture plates at 4×10^6 cells per well with 2×10^6 irradiated syngeneic spleen cells and bcr3-abl2 peptide at 25 μg/ml (total volume 2 ml). The plates were cultured in a humidified atmosphere under 5% CO2 tension at 37° C. for 5 days then split 1:2. After 10 days, lymphocytes were restimulated at 1×10^6 lymphocytes per well in 24-well culture plates with 5×10^6 irradiated syngeneic spleen cells and peptide (25 μg/ml). Two days after the second in vitro stimulation, T cells were-plated at 0.5 cells per well in 96-well flat-bottom plates with 1×10^6 irradiated syngeneic spleen cells and rIL-2 (50 U/ml). Derived T cell clones were maintained by periodic stimulation with peptide (1 μg/ml) plus irradiated syngeneic spleen cells followed by expansion with rIL-2 (10 U/ml) every 2 weeks. T cell clones were stained with FITC-conjugated anti-Thy 1.2 (1%), or FITC-conjugated anti-Lyt2 (2%), or PE-conjugated anti-L3T4 (3%) mAbs (Becton Dickinson Immunocytochemistry Systems, Mountain View, Calif.) at 4° C. for 45 minutes.
In general terms: Incorporation of labelled thymidine or its analogues reports DNA synthesis.

In test [2] the test system is spleen cells from mice immunized with p54-66[L61]. Nature of the test: Proliferative response of spleen cells from mice immunized with p54-66[L61] ras peptide. Type of test: cell-based, C3H/HeN mice. Particulars: lymphocytes from mice immunized with p54-66[L61]; FIG. 4. The procedure: This peptide is denoted as p54-66[L61] or [L61]. C3H/HeN mice were immunized twice subcutaneously at two week intervals with Ribi adjuvant alone or adjuvant emulsified with p54-66[L61] ras peptide (100 μg). Two weeks after the final immunization, spleen cells from mice injected with adjuvant alone (open bar) or adjuvant plus p54-66[L61] ras peptide (black bar) were harvested and tested in vitro for proliferative response to the indicated p54-66 ras peptide (100 μg/ml). The peptide containing the substitution of lysine (K) for glutamine at position 61 is denoted as [K61]. The data represent the mean of triplicate determinations of the c.p.m. of incorporated ^3HTdR±S.D.

For test [3], the system named is lymphocytes from mice immunized with the Arg-12 peptide. In words: Proliferation assay of lymph node lymphocytes from mice immunized with ras Arg-12 peptide. Type of test: cell-based. Particulars: lymphocytes from C57BL/6 mice immunized with a single dose of Arg-12 peptide; FIG. 1. The procedure:
FIG. 1 graphically illustrates that specific T cell responses to point-mutated ras peptide can be generated by in vivo priming on day 0 with 50 μg of a peptide of 12 amino acid length constructed identically to murine ras-p21 (amino acids 5-16) but with the substitution of arginine for the glycine normally found at position 12 (i.e., position 12 of ras-p21 but position 8 of the peptide). This peptide is denoted as ras p5-16[R12] or as ras-R12. Mice were immunized with ras-R12 peptide plus adjuvant or with adjuvant alone. […]
Lymphocytes obtained from immunized mice were suspended in culture medium (consisting of RPMI 1640 Gibco supplemented with 10% fetal calf serum, 2 mM L-glutamine, 100 U/ml streptomycin, 100 U/ml penicillin and 2.5×10^−5 M 2-mercaptoethanol) and were plated in 96-well flat bottom microtiter plates (Costar Co., Cambridge, Mass.) at 1×10^5 cells per well. […] Lymphocytes from individual wells were collected onto filter paper disks using a multi-channel harvester then transferred to scintillation fluid in individual counting tubes. β emission was measured using a Beckmann liquid scintillation spectrophotometer. […]

On to “A F H G D A Q A L Q R P V A (AFHGDAQALQRPVA) [BCRI-abl2, 14 mer of p185 bcr-abl joining region, reference compound]”, for which the “[^3H] Thymidine Incorporation (c.p.m.)” value in test [1] (T cell clone 1D2) is reported as 315 c.p.m; in test [1] (T cell clone 2B12) it was 385 c.p.m; in test [1] (T cell clone 2D4) it was 147 c.p.m; in test [1] (T cell clone 2E3), 461 c.p.m; in test [1] (T cell clone 2E10), 137 c.p.m; in test [1] (T cell clone 3B7) it was 277 c.p.m. Moreover, the “[^3H] Thymidine Incorporation (c.p.m.)” value in test [1] (T cell clone 3E11) turned out to be 398 c.p.m; in test [1] (T cell clone 3G2), 583 c.p.m; in test [1] (T cell clone 3G3), 351 c.p.m.

On to “G F K Q S S K A L Q R P V A (GFKQSSKALQRPVA) [bcr3-abl2 14-mer peptide]”, for which the entries for the “[^3H] Thymidine Incorporation (c.p.m.) after Stimulation with bcr3-abl2 peptide (5 μg/ml)” value in test [1] (T cell clone 1D2) and in test [1] (T cell clone 2E10) were 238,297 c.p.m and 170,085 c.p.m, respectively. Further, the “[^3H] Thymidine Incorporation (c.p.m.) after Stimulation with bcr-abl 12 peptide/proteins (μg/ml)” value is recorded as 6,303 c.p.m in test [1] (T cell clone 2E10, peptide/protein 0.04 μg/ml); 54,896 c.p.m in test [1] (T cell clone 2E10, peptide/protein 0.2 μg/ml); 92,970 c.p.m in test [1] (T cell clone 2E10, peptide/protein 1 μg/ml).

As for “G F K Q S S K A L Q R P V A S D (GFKQSSKALQRPVASD) [bcr3-abl2 16-mer]”, the “[^3H] Thymidine Incorporation (c.p.m.) after Stimulation with bcr3-abl2 peptide (5 μg/ml)” value in test [1] (T cell clone 1D2) is listed as 108,309 c.p.m; in test [1] (T cell clone 2E10), 139,083 c.p.m.

Turning to “Gln-61: p54-66 ras peptide with the normal glutamine at position 61 (DILDTAGQEEYSA; UniProt P01112 54-66, looked up, fragment)”, the proliferation in vitro result in test [2] is reported as “not”.

On to “H S A T G F K Q S S K A L Q R P V A (HSATGFKQSSKALQRPVA) [bcr3-abl2 18-mer]”, for which the results for the “[^3H] Thymidine Incorporation (c.p.m.) after Stimulation with bcr3-abl2 peptide (5 μg/ml)” value in test [1] (T cell clone 1D2) and in test [1] (T cell clone 2E10) were 150,309 c.p.m and 224,674 c.p.m, respectively.

For “I V H S A T G F K Q S S (IVHSATGFKQSS) [bcr3, reference compound]”, the “[^3H] Thymidine Incorporation (c.p.m.)” value in test [1] (T cell clone 1D2) is listed as 294 c.p.m; in test [1] (T cell clone 2B12) it was 461 c.p.m; in test [1] (T cell clone 2D4), 133 c.p.m; in test [1] (T cell clone 2E3) it was 193 c.p.m; in test [1] (T cell clone 2E10) it was 667 c.p.m; in test [1] (T cell clone 3B7), 462 c.p.m. Moreover, the “[^3H] Thymidine Incorporation (c.p.m.)” value was 305 c.p.m in test [1] (T cell clone 3E11), 461 c.p.m in test [1] (T cell clone 3G2) and 190 c.p.m in test [1] (T cell clone 3G3). In addition, the “response of bcr3-abl2 peptide-specific T cell clones (in words)” value in test [1] (proliferative assay with irradiated syngeneic APC) is “failed to respond”.

As to “IVHSATGFKQSSKALQRPVASD (IVHSATGFKQSSKALQRPVASD) [bcr3-abl2 22-mer]”, the “[^3H] Thymidine Incorporation (c.p.m.) after Stimulation with bcr3-abl2 peptide (5 μg/ml)” value in test [1] (T cell clone 1D2) is given as 21,208 c.p.m; in test [1] (T cell clone 2E10) it was 29,509 c.p.m.

Turning to “KLVVVGARGVGK [Arg-12 peptide, residues 5-16 of ras p21 with arginine for glycine at position 12]”, in test [3], the “proliferative response in vitro” value is “proliferate specifically”.

Take “L T I N K E E A L Q R P (LTINKEEALQRP) [bcr2-abl2, 12 mer of p210 joining region, bcr exon 2 fused to c-abl exon 2, reference compound]”: the “[^3H] Thymidine Incorporation (c.p.m.)” value was 274 c.p.m in test [1] (T cell clone 1D2); 341 c.p.m in test [1] (T cell clone 2B12); 143 c.p.m in test [1] (T cell clone 2D4); 402 c.p.m in test [1] (T cell clone 2E3); 287 c.p.m in test [1] (T cell clone 2E10); 349 c.p.m in test [1] (T cell clone 3B7). Further, the “[^3H] Thymidine Incorporation (c.p.m.)” value in test [1] (T cell clone 3E11) stood at 299 c.p.m; in test [1] (T cell clone 3G2) it was 478 c.p.m; in test [1] (T cell clone 3G3), 217 c.p.m.

Take “Leu-61 peptide: 13 residues 54-66 of ras p21 with leucine for glutamine at position 61 (DILDTAGLEEYSA; UniProt P01112 54-66, looked up, fragment Q61L)”: in test [2], the proliferation in vitro entry is “proliferate in vitro”.

“Lys-61: p54-66 ras peptide with lysine for glutamine at position 61 (DILDTAGKEEYSA; UniProt P01112 54-66, looked up, fragment Q61K)”: in test [2], the proliferation in vitro entry is recorded as “not”.
